Test results: ChEMBL document CHEMBL1142177, “Effects of age, gender, and race/ethnicity on the pharmacokinetics of posaconazole in healthy volunteers” (Antimicrob Agents Chemother, 2007)

Key:
Assay type in all cases: ADME, organism-based
[1] = Cmax in >=65 yr old man plasma at 400 mg, po twice daily after 8 days; parameters: dose 400 mg, route oral; settings: male, human
[2] = Tmax in >=65 yr old man plasma at 400 mg, po twice daily after 8 days; settings: male, human
Homo sapiens [3] = assay: AUC (0-12 hrs) in >=65 yr old man plasma at 400 mg, po twice daily after 8 days; parameters: time < 12 hr, dose 400 mg, route oral; settings: in vivo
[4] = Half life in >=65 yr old man plasma at 400 mg, po twice daily after 8 days; settings: male, human
Homo sapiens [5] = assay: Apparent total clearance in >=65 yr old man plasma at 400 mg, po twice daily after 8 days; settings: in vivo, 192 h
[6] = Cmax in >=65 yr old woman plasma at 400 mg, po twice daily after 8 days; parameters: dose 400 mg, route oral; settings: female, human
[7] = Tmax in >=65 yr old woman plasma at 400 mg, po twice daily after 8 days; settings: female, human
Homo sapiens [8] = assay: AUC (0-12 hrs) in >=65 yr old woman plasma at 400 mg, po twice daily after 8 days; parameters: dose 400 mg, time < 12 hr, route oral; settings: in vivo
[9] = Half life in >=65 yr old woman plasma at 400 mg, po twice daily after 8 days; settings: female, human
Homo sapiens [10] = assay: Apparent total clearance in >=65 yr old woman plasma at 400 mg, po twice daily after 8 days; settings: in vivo, 192 h
[11] = Cmax in white racial/ethnic human plasma at 400 mg, po twice daily after 8 days; parameters: dose 400 mg, route oral
[12] = Tmax in white racial/ethnic human plasma at 400 mg, po twice daily after 8 days
Homo sapiens [13] = assay: AUC (0-12 hrs) in white racial/ethnic human plasma at 400 mg, po twice daily after 8 days; parameters: time < 12 hr, dose 400 mg, route oral; settings: in vivo
[14] = Half life in white racial/ethnic human plasma at 400 mg, po twice daily after 8 days
Homo sapiens [15] = assay: Apparent total clearance in white racial/ethnic human plasma at 400 mg, po twice daily after 8 days; settings: in vivo, 192 h
[16] = Cmax in black racial/ethnic human plasma at 400 mg, po twice daily after 8 days; parameters: dose 400 mg, route oral
[17] = Tmax in black racial/ethnic human plasma at 400 mg, po twice daily after 8 days
Homo sapiens [18] = assay: AUC (0-12 hrs) in black racial/ethnic human plasma at 400 mg, po twice daily after 8 days; parameters: dose 400 mg, time < 12 hr, route oral; settings: in vivo
[19] = Half life in black racial/ethnic human plasma at 400 mg, po twice daily after 8 days
Homo sapiens [20] = assay: Apparent total clearance in black racial/ethnic human plasma at 400 mg, po twice daily after 8 days; settings: in vivo, 192 h
[21] = Cmax in 18-45 yr old human plasma at 400 mg, po twice daily after 8 days; parameters: dose 400 mg, route oral
[22] = Tmax in 18-45 yr old human plasma at 400 mg, po twice daily after 8 days
Homo sapiens [23] = assay: AUC (0-12 hrs) in 18-45 yr old human plasma at 400 mg, po twice daily after 8 days; parameters: dose 400 mg, time < 12 hr, route oral; settings: in vivo
[24] = Half life in 18-45 yr old human plasma at 400 mg, po twice daily after 8 days
Homo sapiens [25] = assay: Apparent total clearance in 18-45 yr old human plasma at 400 mg, po twice daily after 8 days; settings: in vivo, 192 h
[26] = Cmax in >=65 yr old human plasma at 400 mg, po twice daily after 8 days; parameters: dose 400 mg, route oral
[27] = Tmax in >=65 yr old human plasma at 400 mg, po twice daily after 8 days
Homo sapiens [28] = assay: (§1) AUC (0-12 hrs) in >=65 yr old human plasma at 400 mg, po twice daily after 8 days; parameters: time < 12 hr, dose 400 mg, route oral; settings: in vivo
[29] = as §1
Homo sapiens [30] = assay: Apparent total clearance in >=65 yr old human plasma at 400 mg, po twice daily after 8 days; settings: in vivo, 192 h
[31] = Cmax in 18-45 yr old man plasma at 400 mg, po twice daily after 8 days; parameters: dose 400 mg, route oral; settings: male, human
[32] = Tmax in 18-45 yr old man plasma at 400 mg, po twice daily after 8 days; settings: male, human
Homo sapiens [33] = assay: AUC (0-12 hrs) in 18-45 yr old man plasma at 400 mg, po twice daily after 8 days; parameters: time < 12 hr, dose 400 mg, route oral; settings: in vivo
[34] = Half life in 18-45 yr old man plasma at 400 mg, po twice daily after 8 days; settings: male, human
Homo sapiens [35] = assay: Apparent total clearance in 18-45 yr old man plasma at 400 mg, po twice daily after 8 days; settings: in vivo, 192 h
[36] = Cmax in 18-45 yr old woman plasma at 400 mg, po twice daily after 8 days; parameters: dose 400 mg, route oral; settings: female, human
[37] = Tmax in 18-45 yr old woman plasma at 400 mg, po twice daily after 8 days; settings: female, human
Homo sapiens [38] = assay: AUC (0-12 hrs) in 18-45 yr old woman plasma at 400 mg, po twice daily after 8 days; parameters: time < 12 hr, dose 400 mg, route oral; settings: in vivo
[39] = Half life in 18-45 yr old woman plasma at 400 mg, po twice daily after 8 days; settings: female, human
Homo sapiens [40] = assay: Apparent total clearance in 18-45 yr old woman plasma at 400 mg, po twice daily after 8 days; settings: in vivo, 192 h

## CC[C@@H]([C@H](C)O)n1ncn(-c2ccc(N3CCN(c4ccc(OC[C@@H]5CO[C@@](Cn6cncn6)(c6ccc(F)cc6F)C5)cc4)CC3)cc2)c1=O [POSACONAZOLE]
[1]
  Cmax: 3250 ng/mL
[2]
  Tmax: 5 h
Homo sapiens [3]
  AUC: 32963 ng·h/mL
[4]
  half-life: 37.7 h
Homo sapiens [5]
  CL: 28.1 L/h
[6]
  Cmax: 3500 ng/mL
[7]
  Tmax: 6 h
Homo sapiens [8]
  AUC: 37924 ng·h/mL
[9]
  half-life: 42.4 h
Homo sapiens [10]
  CL: 25.4 L/h
[11]
  Cmax: 2860 ng/mL
[12]
  Tmax: 5 h
Homo sapiens [13]
  AUC: 30091 ng·h/mL
[14]
  half-life: 37.3 h
Homo sapiens [15]
  CL: 54 L/h
[16]
  Cmax: 2400 ng/mL
[17]
  Tmax: 5 h
Homo sapiens [18]
  AUC: 25107 ng·h/mL
[19]
  half-life: 32.2 h
Homo sapiens [20]
  CL: 37 L/h
[21]
  Cmax: 2610 ng/mL
[22]
  Tmax: 5 h
Homo sapiens [23]
  AUC: 26740 ng·h/mL
[24]
  half-life: 31.6 h
Homo sapiens [25]
  CL: 33.1 L/h
[26]
  Cmax: 3370 ng/mL
[27]
  Tmax: 5 h
Homo sapiens [28]
  AUC: 35444 ng·h/mL
[29]
  half-life: 41.8 h
Homo sapiens [30]
  CL: 26.7 L/h
[31]
  Cmax: 2680 ng/mL
[32]
  Tmax: 4 h
Homo sapiens [33]
  AUC: 27784 ng·h/mL
[34]
  half-life: 31.3 h
Homo sapiens [35]
  CL: 33.5 L/h
[36]
  Cmax: 2520 ng/mL
[37]
  Tmax: 5 h
Homo sapiens [38]
  AUC: 25507 ng·h/mL
[39]
  half-life: 31.9 h
Homo sapiens [40]
  CL: 32.6 L/h
